Experimental data: USRE42890E1, “Furazanobenzimidazoles” (Basilea Pharmaceutica AG, priority 2003, dated 2011)

Columns and labels:
[1] = test system: MRC5; assay: MTS proliferation assay, MRC5; type: cell-based; details: MRC5, 72 h incubation; read-out: MTS proliferation assay IC 50 MRC5
Procedure, shortened: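 RPMI-1640 + 5% or 10% FCS; seeded 24 h pre-dose; cpd final 10/3/1/0.3 μM, max 5% DMSO in added volume; 72 h, 37° C, 7.5% CO2; MTS 3 h; A492.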

[2] = test system: HT1080; assay: MTS proliferation assay, HT1080; type: cell-based, human; details: HT1080, 72 h incubation; read-out: MTS proliferation assay IC 50 HT1080
Procedure, shortened: (§1)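 Seed cells (1.5*10^3-10^4/well) 24 h ahead; add compound, final 10/3/1/0.3 μM; incubate 72 h, 37 °C, 7.5% CO2; MTS 3 h; read A492.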

[3] = test system: adherent cells or suspension cells; assay: Hoechst 33342 nuclear staining (fraction of apoptotic nuclei); type: cell-based; set-up: key: 0 relating to no activity; 1 relating to weak activity comprising less than 70% of the cells; score 2 relating to strong activity comprising more than 70% of the cells
[4] = test system: Jily; assay: MTS proliferation assay, Jily; type: cell-based; details: 72 h incubation, read-out: MTS proliferation assay IC 50 Jily
Method: Cell lines are cultured in RPMI-1640 tissue culture medium containing either 5% or 10% fetal calf serum, 0.05 mM 2-mercaptoethanol, 2 mM glutamine and penicillin/streptomycin 50 μg/ml (complete medium) (Sigma, Buchs, Switzerland). General growth conditions are 37° C. and 7.5% CO2.
The assay is performed in 96 well tissue culture plates. The cells (range: 1.5*10^3-10^4) are seeded out in 80 μl complete medium 24 h prior to compound treatment. The test compounds are added in 20 μl complete medium containing max 5% DMSO. The final compound concentrations in the assays are 10 μM, 3 μM, 1 μM and 0.3 μM, respectively. The assay plates are incubated for 72 h at culture conditions. The MTS reagent is prepared according to the manufacturer's protocol (Promega G1111). 20 μl MTS reagent are added to each well, the assay plates are quickly spun and incubated for another 3 h at culture conditions. Subsequently, the plates are shortly shaked and absorption measured with a microplate-reader at 492 nm.

[5] = test system: HeLa; assay: MTS proliferation assay, HeLa; type: cell-based, human; details: 72 h incubation, read-out: MTS proliferation assay IC 50 HeLa
Procedure, shortened: as §1

SMILES | IC50 [1] [nM] | IC50 [2] [nM] | Hoechst 33342 nuclear staining score ([3]; H460, conc 0.01 μm) | Hoechst 33342 nuclear staining score ([3]; H460, conc 0.1 μm) | Hoechst 33342 nuclear staining score ([3]; H460, conc 1 μm) | Hoechst 33342 nuclear staining score ([3]; HeLa, conc 0.01 μm) | Hoechst 33342 nuclear staining score ([3]; HeLa, conc 0.1 μm) | Hoechst 33342 nuclear staining score ([3]; HeLa, conc 1 μm) | Hoechst 33342 nuclear staining score ([3]; Jily, conc 0.01 μm) | Hoechst 33342 nuclear staining score ([3]; Jily, conc 0.1 μm) | Hoechst 33342 nuclear staining score ([3]; Jily, conc 1 μm) | Hoechst 33342 nuclear staining score ([3]; Jurkat, conc 0.01 μm) | Hoechst 33342 nuclear staining score ([3]; Jurkat, conc 0.1 μm) | Hoechst 33342 nuclear staining score ([3]; Jurkat, conc 1 μm) | Hoechst 33342 nuclear staining score ([3]; MRC5, conc 0.01 μm) | Hoechst 33342 nuclear staining score ([3]; MRC5, conc 0.1 μm) | Hoechst 33342 nuclear staining score ([3]; MRC5, conc 1 μm) | Hoechst 33342 nuclear staining score ([3]; PBLs, conc 0.01 μm) | Hoechst 33342 nuclear staining score ([3]; PBLs, conc 0.1 μm) | Hoechst 33342 nuclear staining score ([3]; PBLs, conc 1 μm) | also measured
Cc1ccc(OCn2c(-c3nonc3N)nc3ccccc32)cc1C [Example 101] | 10 to 100 | 10 to 100 | 0 | 1 (1 relating to weak activity comprising less than 70% of the cells) | 2 (score 2 relating to strong activity comprising more than 70% of the cells) | 0 | 1 (1 relating to weak activity comprising less than 70% of the cells) | 2 (score 2 relating to strong activity comprising more than 70% of the cells) | 0 | 1 (1 relating to weak activity comprising less than 70% of the cells) | 2 (score 2 relating to strong activity comprising more than 70% of the cells) | 0 | 2 (score 2 relating to strong activity comprising more than 70% of the cells) | 2 (score 2 relating to strong activity comprising more than 70% of the cells) | 0 | 1 (1 relating to weak activity comprising less than 70% of the cells) | 1 (1 relating to weak activity comprising less than 70% of the cells) | 0 | 0 | 0 | IC50 [4]: 10 to 100 nM; IC50 [5]: 10 to 100 nM
Cc1ccc(C(=O)Cn2c(-c3nonc3NCCC#N)nc3ccccc32)cc1C [Example 54] | 10 to 100 | 10 to 100 | 0 | 2 (score 2 relating to strong activity comprising more than 70% of the cells) | 2 (score 2 relating to strong activity comprising more than 70% of the cells) | 0 | 2 (score 2 relating to strong activity comprising more than 70% of the cells) | 2 (score 2 relating to strong activity comprising more than 70% of the cells) | 1 (1 relating to weak activity comprising less than 70% of the cells) | 2 (score 2 relating to strong activity comprising more than 70% of the cells) | 2 (score 2 relating to strong activity comprising more than 70% of the cells) | 1 (1 relating to weak activity comprising less than 70% of the cells) | 2 (score 2 relating to strong activity comprising more than 70% of the cells) | 2 (score 2 relating to strong activity comprising more than 70% of the cells) | 0 | 2 (score 2 relating to strong activity comprising more than 70% of the cells) | 2 (score 2 relating to strong activity comprising more than 70% of the cells) | 0 | 0 | 0 | IC50 [4]: 10 to 100 nM; IC50 [5]: 10 to 100 nM
Nc1nonc1-c1nc2ccccc2n1COc1cc(C(F)(F)F)cc(C(F)(F)F)c1 [Example 102] | 100 to 1000 | > 1000 | 0 | 0 | 1 (1 relating to weak activity comprising less than 70% of the cells) | 0 | 0 | 0 | 0 | 0 | 1 (1 relating to weak activity comprising less than 70% of the cells) | 0 | 0 | 2 (score 2 relating to strong activity comprising more than 70% of the cells) | 0 | 0 | 0 | 0 | 0 | 0 | IC50 [4]: 100 to 1000 nM; IC50 [5]: > 1000 nM
Nc1nonc1-c1nc2ccccc2n1CC(=O)c1cc(F)ccc1F [Example 71] | > 1000 | > 1000 | 0 | 0 | 0 | 0 | 0 | 0 | 0 | 0 | 1 (1 relating to weak activity comprising less than 70% of the cells) | 0 | 0 | 2 (score 2 relating to strong activity comprising more than 70% of the cells) | 0 | 0 | 0 | 0 | 0 | 0 | IC50 [4]: 100 to 1000 nM; IC50 [5]: 100 to 1000 nM
Nc1nonc1-c1nc2ccccc2n1COc1cccc(C(F)(F)F)c1 [Example 103] | 100 to 1000 | 100 to 1000 | 0 | 0 | 2 (score 2 relating to strong activity comprising more than 70% of the cells) | 0 | 0 | 2 (score 2 relating to strong activity comprising more than 70% of the cells) | 0 | 0 | 2 (score 2 relating to strong activity comprising more than 70% of the cells) | 0 | 1 (1 relating to weak activity comprising less than 70% of the cells) | 2 (score 2 relating to strong activity comprising more than 70% of the cells) | 0 | 0 | 1 (1 relating to weak activity comprising less than 70% of the cells) | 0 | 0 | 0 | IC50 [4]: 10 to 100 nM; IC50 [5]: 100 to 1000 nM
CCc1ccc(C(=O)Cn2c(-c3nonc3NCCC#N)nc3ccccc32)cc1 [Example 56] | 10 to 100 | 10 to 100 | 0 | 0 | 2 (score 2 relating to strong activity comprising more than 70% of the cells) | 0 | 1 (1 relating to weak activity comprising less than 70% of the cells) | 2 (score 2 relating to strong activity comprising more than 70% of the cells) | 0 | 2 (score 2 relating to strong activity comprising more than 70% of the cells) | 2 (score 2 relating to strong activity comprising more than 70% of the cells) | 0 | 2 (score 2 relating to strong activity comprising more than 70% of the cells) | 2 (score 2 relating to strong activity comprising more than 70% of the cells) | 0 | 1 (1 relating to weak activity comprising less than 70% of the cells) | 1 (1 relating to weak activity comprising less than 70% of the cells) | 0 | 0 | 0 | IC50 [4]: 10 to 100 nM; IC50 [5]: 10 to 100 nM
